Values after ≈ are worked out from the molar mass of the structure shown.

The test system of assay [1] is Methicillin-Resistant Staphylococcus aureus 371 (MRSA 371). Briefly: Micro-broth MIC assay, MRSA 371. Format: cell-based. Particulars: for Minimum Inhibitory Concentration (MIC) MRSA 371: Gram-(+), clinical strain, triplicate, no growth after 16-24 hours at 37° C.; for MIC: Staphylococcus aureus, MRSA, read-out: Minimum Inhibitory Concentration (MIC) MRSA 371. As for the experimental part:
(§1) Four clinical strains were used for these studies, Enterococcus faecalis S613, Enterococcus faecium isolate 105, Methicillin-Resistant Staphylococcus aureus 371 (MRSA 371) and Acinetobacter baumannii AB210. Enterococcus strains were cultured in 80% Lysogeny Broth (LB) & 20% Brain Heart Infusion (BHI). MRSA 371 and AB210 were cultured in 100% LB.
(§2) Micro-broth MIC assays were performed in triplicate using 96-well plates. Wells were filled with 150 μL of broth media and inoculated with 2 μL of stationary phase culture. The concentration of the test antibiotics increased in 2-fold increments and ranged from 0.25-128 μg/mL. Plates were incubated overnight at 37° C. and the MICs were defined as the lowest drug concentration that had no growth after 16-24 hours.

Assay [2] deals with Acinetobacter baumannii AB210. Description: Micro-broth MIC assay, A. baumannii AB210. Format: cell-based. Particulars: for Minimum Inhibitory Concentration (MIC) A. baumannii AB210: Gram-(−), clinical strain, triplicate, no growth after 16-24 hours at 37° C.; for MIC: Acinetobacter baumannii, AB210, read-out: Minimum Inhibitory Concentration (MIC) A. baumannii AB210. The protocol:
as §1, §2

Another assay concerns E. faecium 501. Briefly: Micro-broth MIC assay, E. faecium 501. Type of assay: cell-based, Enterococcus faecium. Conditions: Gram-(+), clinical strain, triplicate, no growth after 16-24 hours at 37° C.; for MIC: Enterococcus faecium, 501, read-out: Minimum Inhibitory Concentration (MIC) E. faecium 501.
For assay [3], the system named is Enterococcus faecalis S613. Briefly: Micro-broth MIC assay, E. faecalis S613. Type of assay: cell-based. Conditions: for Minimum Inhibitory Concentration (MIC) E. faecalis S613: Gram-(+), clinical strain, triplicate, no growth after 16-24 hours at 37° C.; for MIC: Enterococcus faecalis, S613, read-out: Minimum Inhibitory Concentration (MIC) E. faecalis S613. The protocol: as §1, §2

For the compound “viridicatumtoxin B [(±)-1, reference compound]”, the “Minimum Inhibitory Concentration (MIC) MRSA 371” value in assay [1] turned out to be 4 µg/mL. Further, the “Minimum Inhibitory Concentration (MIC) A. baumannii AB210” value in assay [2] worked out at 64 µg/mL. Moreover, the “Minimum Inhibitory Concentration (MIC) E. faecium 501” value with E. faecium 501 is 0.5 µg/mL. For the same compound, the “Minimum Inhibitory Concentration (MIC) E. faecalis S613” value in assay [3] is 1 µg/mL.

Consider `COc1cc(O)c2c(O)c3c(c4c2c1[C@]1(C4)C(C)=CCCC1(C)C)[C@H](O)[C@@]1(O)CC(=O)C(C(N)=O)=C(O)[C@@]1(O)C3=O` [(+)-2, viridicatumtoxin A], for which the “Minimum Inhibitory Concentration (MIC) MRSA 371” value in assay [1] stood at 4 µg/mL. The “Minimum Inhibitory Concentration (MIC) A. baumannii AB210” value in assay [2] came out at 64 µg/mL. The “Minimum Inhibitory Concentration (MIC) E. faecium 501” value in the assay on E. faecium 501 worked out at 1 µg/mL. Moreover, the “Minimum Inhibitory Concentration (MIC) E. faecalis S613” value in assay [3] was 1 µg/mL.

On to `COc1cc(O)c2c(O)c3c(c4c2c1[C@]1(C4)C(C)=CCCC1(C)C)[C@H](O)[C@H]1CC(O)=C(C(N)=O)C(=O)[C@@]1(O)C3=O` (racemic) [(±)-V5], for which the MIC is 8 µg/mL (≈ 14.6 µM) in assay [1], 64 µg/mL (≈ 116 µM) in assay [2], 1 µg/mL (≈ 1.82 µM) with E. faecium 501 and 1 µg/mL (≈ 1.82 µM) in assay [3].

Consider `COc1cc(O)c2c(O)c3c(c4c2c1[C@]1(C4)C(C)=CCCC1(C)C)[C@@H](O)[C@H]1CC(O)=C(C(N)=O)C(=O)[C@@]1(O)C3=O` (racemic) [(±)-V6], for which the MIC in assay [1] was found to be 2 µg/mL (≈ 3.64 µM); in assay [2], 64 µg/mL (≈ 116 µM); in the assay with E. faecium 501, 0.5 µg/mL (≈ 0.91 µM); in assay [3], 0.5 µg/mL (≈ 0.91 µM).

Regarding `COc1cc(OC)c2c(O)c3c(c4c2c1[C@@]1(C4)C(C)=CCCC1(C)C)C(=O)[C@H]1CC(O)=C(C(N)=O)C[C@@]1(O)C3=O` (racemic) [(±)-V4], the MIC was 4 µg/mL (≈ 7.3 µM) in assay [1], 64 µg/mL (≈ 117 µM) in assay [2], 4 µg/mL (≈ 7.3 µM) in the assay with E. faecium 501 and 4 µg/mL (≈ 7.3 µM) in assay [3].

On to `COc1cc(O)c2c(O)c3c(c4c2c1[C@@]1(C4)C(C)=CCCC1(C)C)C(=O)[C@H]1CC(O)=C(C(N)=O)C[C@@]1(O)C3=O` (racemic) [(±)-V3], for which the MIC in assay [1] was determined as 8 µg/mL (≈ 15 µM); in assay [2] it was 64 µg/mL (≈ 120 µM); in the assay on E. faecium 501, 2 µg/mL (≈ 3.75 µM); in assay [3], 4 µg/mL (≈ 7.5 µM).

With `COc1cc(O)c2c(O)c3c(c4c2c1[C@]1(C4)C(C)=CCCC1(C)C)C(=O)[C@H]1CC(O)=C(C(N)=O)C(=O)[C@@]1(O)C3=O` (racemic) [(±)-V2], the MIC in assay [1] was found to be 2 µg/mL (≈ 3.65 µM); in assay [2], 64 µg/mL (≈ 117 µM); with E. faecium 501 it was 0.5 µg/mL (≈ 0.913 µM); in assay [3], 0.5 µg/mL (≈ 0.913 µM).

Values taken from patent US10065924B2, “Preparation and biological evaluation of viridicatumtoxin analogs” (priority 2014, dated 2018).
